According to patent US10112941B2, “Tricyclic compounds as anticancer agents” (BRISTOL-MYERS SQUIBB COMPANY, priority 2013, dated 2018):

Assays:
BRD4 = BRD4 (Homo sapiens, UniProt O60885); test: Time Resolved Fluorescence Resonance Energy Transfer (TR-FRET) binding assay, BRD4; conditions: one of the FRET assays described; read-out: FRET BRD4 IC50
[1] = test system: H187 Human Small Cell Carcinoma; test: Human tumor xenograft model in mice, H187; assay type: in vivo; conditions: QD × 7
Excerpt: All rodents were obtained from Jackson Laboratory. (Bar Harbor, Me.), and maintained in an ammonia-free environment in a defined and pathogen-free colony. All mice were quarantined approximately 1 week prior to their use for tumor propagation and drug efficacy testing. Mice were fed food and water ad libitum. The animal care program of Bristol-Myers Squibb Pharmaceutical Research Institute is fully accredited by the American Association for Accreditation of Laboratory Animal Care (AAALAC). All experiments were performed in accordance with Bristol-Myers Squibb (BMS) animal test methods and guidelines.
Tumor xenografts were grown and maintained subcutaneously (SC) in NSG (NOD scid IL2 receptor gamma chain knockout) mice (Jackson Lab). Tumors were propagated as subcutaneous transplants using tumor fragments obtained from donor mice.
The required numbers of animals needed to detect a meaningful response were pooled at the start of the experiment and each was given bilateral subcutaneous implants of two tumor fragments (˜20 mg) with a 13-gauge trocar. Tumors were allowed to grow to the pre-determined size window (tumors outside the range were excluded) and animals were evenly distributed to various treatment and control groups. There were typically 6-8 mice per treatment and control groups, consisting of 10-12 tumors. Treatment of each animal was based on individual body weight. Treated animals were checked daily for treatment related toxicity/mortality. Each group of animals was weighed before the initiation of treatment (Wt1) and then again following the last treatment dose (Wt2). The difference in body weight (Wt2−Wt1) provides a measure of treatment-related toxicity.
Tumor response was determined by measurement of tumors with a caliper twice a week, until the tumors reached a predetermined “target” size of 0.5 gm or 1 gm depending on the tumor type. Tumor weights (mg) were estimated from the formula: Tumor weight=(length×width^2)÷2
Tumor response criteria are expressed in terms of tumor growth inhibition (% TGI). Tumor growth delay is defined as the difference in time (days) required for the treated tumors (T) to reach a predetermined target size compared to those of the control group (C). For this purpose, the tumor weight of a group is expressed as medium tumor weight (MTW).
[formula] where, • Ct=Median control tumor size at end of treatment • C0=Median control tumor size at treatment initiation • Tt=Median tumor size of treated group at end of treatment • T0=Median tumor size of treated group at treatment initiation
Tumor response was also expressed in terms of tumor growth delay and expressed as log cell kill (LCK value), defined as the difference in time (days) required for the treated tumors (T) to reach a predetermined target size compared to those of the control group (C).
Whenever possible, antitumor activity was determined at a range of dose levels up to the maximum tolerated dose (MTD) which is defined as the dose level immediately […] which excessive toxicity (i.e. more than one death) occurred. When death occurred, the day of death was recorded. Treated mice dying prior to having their tumors reach target size were considered to have died from drug toxicity. No control mice died bearing tumors less than target size. Treatment groups with more than one death caused by drug toxicity were considered to have had excessively toxic treatments and their data were not included in the evaluation of a compound's antitumor efficacy.
For administration of BET inhibitors to rodents, compounds were dissolved in […]/10% TPGS/10% Ethanol. BET inhibitors were typically administered orally on a schedule of QD×7 or QD×10 (5 day-on-2 day-off), although other schedules had also been evaluated and shown to be efficacious

`Cc1nnn(C)c1-c1cnc2c3ccc(C(C)(C)O)c(F)c3n(C(c3ccccc3)C3CCOCC3)c2c1` (single isomer, unassigned) [Example 70, 2-[3-(dimethyl-1H-1,2,3-triazol-5-yl)-6-fluoro-5-[oxan-4-yl(phenyl)methyl]-5H-pyrido[3,2-b]indol-7-yl]propan-2-ol] was tested, and the IC50 (BRD4) was less than 5 nM, the “% TGI” value ([1]; H187, 1 mg/kg) was 82.0% and the LCK ([1]; H187, 1 mg/kg) was 0.7. The “% TGI” value ([1]; H187, 3 mg/kg) was 90.0%, the LCK ([1]; H187, 3 mg/kg) was 1.0 and the “% TGI” value ([1]; H187, 10 mg/kg) was 96.0%. It also gave an LCK ([1]; H187, 10 mg/kg) of 1.6.
